“Also recorded” adds a separate entry of the source.

For one assay, the system named is PPAR-α. Kind of assay: PPAR-α transactivation (PPRE-LUC) in HEK-293 cells co-transfected with ER-β. It is filed as cell-based. The procedure: FIG. 12 depicts the effect of ER-β ligand on PPAR-γ function through ligand binding domain (LBD). (A). HEK-293 cells were transfected with 0.25 μg PPRE-LUC, 5 ng CMV-renilla LUC and the indicated receptors (PPAR-γ and ER-β for the left panel and PPAR-α and ER-β for the right panel). The cells were treated 24 hrs after transfection with the indicated ligands and harvested 48 hrs after transfection and firefly luciferase activity was measured and normalized to renilla luciferase. (B). H475 in ER-β LBD is important for its function. H475 in ER-β LBD was mutated to alanine (A) using a site directed mutagenesis kit. Transactivation assay was performed as described in panel A in HEK-293 cells with a titration of ER-β ligands in wild type (WT) or ER-β H475A. (C). […] The cells were treated 24 hrs after transfection with the indicated ligands and harvested 48 hrs after transfection and firefly luciferase activity was measured and normalized to renilla luciferase. […] The cells were treated 24 hrs after transfection with the indicated ligands and harvested 48 hrs after transfection and firefly luciferase activity was measured and normalized to renilla luciferase. […] The cells were treated 24 hrs after transfection with the indicated ligands and harvested 48 hrs after transfection and firefly luciferase activity was measured and normalized to renilla luciferase. […]

For assay [1], the system named is Ang II induced hypertension. Kind of assay: Angiotensin II model, blood pressure. It is filed as in vivo, ovariectomized C57/BJ6 and ERβKO mice. Also on record: Systolic pressure / Diastolic pressure: unit: mmHg. The conditions noted are these: for Diastolic pressure / Systolic pressure: Ang II. The protocol:
Thirty, ten week old female ovariectomized C57/BJ6 mice, were obtained from Harlan/Sprague Dawley and were housed in 12 hour on/off lighting and fed rodent chow devoid of soy or most plant products. Ovariectomized ERβ gene-deleted (ERβKO or ERβ-KO) mice were obtained from Ken Korach, NIEHS. The ERβ mice were originally created by Drs. Smithies, Gustafsson, and colleagues. All mice were identically housed and fed the same chow.
(§1) This pellet is well documented to produce physiological levels of E2 in the serum of mice.
Blood pressure was measured 4 times during the 21-day period, using the CODA non-invasive blood pressure measuring system (Kent Scientific, Torrington, Conn.). Measurements were done by volume pressure recordings of the tail.

Assay [2] concerns Ang II induced left ventricular hypertrophy. Kind of assay: Angiotensin II model, cardiac hypertrophy. The format is in vivo, ovariectomized C57/BJ6 and ERβKO mice. The conditions noted are these: 21 days. The protocol:
(§2) Thirty, ten week old female ovariectomized C57/BJ6 mice, were obtained from Harlan/Sprague Dawley and were housed in 12 hour on/off lighting and fed rodent chow devoid of soy or most plant products. Ovariectomized ERβKO mice were obtained from Ken Korach, NIEHS. The ERβ mice were originally created by Drs. Smithies, Gustafsson, and colleagues. All mice were identically housed and fed the same chow.
as §1
At inception and after 21 days, the mice were weighed. Blood pressure was measured 4 times during the 21-day period, using the CODA non-invasive blood pressure measuring system. At 21 days the hearts were stopped in diastole by CdCl2 administration. The hearts were removed and weighed and the ratio of heart per total body weight was determined. Next, the hearts were dissected and the left ventricles were weighed and the ratio of left ventricle per total body weight was determined. […] For comparison ERβ gene-deleted mice were subjected to the same conditions of Ang II±E2 or the 12u compound. For histology, the hearts were and sectioned, and stained with hematoxylin and eosin, or Masson stain (for collagen)

Assay [3] deals with MHC, phospho-ERK, MCIP-1 in left ventricle. Kind of assay: Angiotensin II model, markers of cardiac hypertrophy. It is filed as in vivo, ovariectomized C57/BJ6 and ERβKO mice. The protocol: as §2, §1
RT-PCR was accomplished using the following primers. GAPDH expression served as control gene for all studies. MCIP1, 5′-[…] and […]; GAPDH, 5′-[…] and […]. • For relative protein detection, immunoblots were carried out on protein extracted from the left ventricles of mice from all conditions, following separation by SDS-PAGE and transfer to nitrocellulose. Cardiac myosin heavy chain (MHC) and MCIP antibodies (ABCAM, Cambridge, Mass. and Santa Cruz Biotechnology Inc., Santa Cruz, Calif.), and brain natriuretic peptide (BNP) antibodies (Penninsula Labs, Mountain View, Calif.) were used.

Assay [4] has as its target ER-β ligand binding domain (LBD) (Homo sapiens (Human), UniProt Q92731). Kind of assay: Ligand binding assay of 14m and 12u, ER-β (Example 22A).

Sequence of ER-β ligand binding domain (LBD) (Q92731 264-498, species assumed): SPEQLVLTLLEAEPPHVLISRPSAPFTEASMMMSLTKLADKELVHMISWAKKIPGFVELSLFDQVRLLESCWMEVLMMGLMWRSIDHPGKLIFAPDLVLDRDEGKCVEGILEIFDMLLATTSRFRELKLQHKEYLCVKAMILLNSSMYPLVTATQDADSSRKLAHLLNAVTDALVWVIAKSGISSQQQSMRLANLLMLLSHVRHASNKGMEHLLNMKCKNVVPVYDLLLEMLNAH

As to `O=c1c2c(O)cc(O)cc2c(Br)cn1-c1ccc(O)cc1` [12u, 4-bromo-6,8-dihydroxy-2-(4-hydroxyphenyl)isoquinolin-1(2H)-one], the “WY14643 induced PPAR-α transactivation” value in the assay with PPAR-α is listed as “did not affect”. Also, the “Ang II induced hypertension, diastolic pressure” value in assay [1] (ERβ-KO mice, 21 days) is given as “unchanged”. For the same compound, the “Ang II induced hypertension, systolic pressure” value in assay [1] (ERβ-KO mice, 21 days) was “mildly reduced”. Moreover, the Diastolic pressure in assay [1] (ERβKO, 7 days) was found to be 98; in assay [1] (ERβKO, 14 days) it was 98; in assay [1] (ERβKO, 21 days), 96; in assay [1] (ERβKO, time 0) it was 87; in assay [1] (WT, 7 days) it was 88; in assay [1] (WT, 14 days), 87. Moreover, the Diastolic pressure is listed as 86 in assay [1] (WT, 21 days) and 85 in assay [1] (WT, time 0). Moreover, the Systolic pressure in assay [1] (ERβKO, 7 days) turned out to be 143; in assay [1] (ERβKO, 14 days), 147; in assay [1] (ERβKO, 21 days), 146; in assay [1] (ERβKO, time 0), 123; in assay [1] (WT, 7 days), 120; in assay [1] (WT, 14 days), 125. Also, the Systolic pressure in assay [1] (WT, 21 days) came out at 130; in assay [1] (WT, time 0), 120. Also, the “Ang II induced hypertension” value in assay [1] (wildtype mice, 21 days) is on record as “largely prevented; also recorded: prevented Ang II induced cardiac hypertension”. In addition, the “Ang II induced increase in heart size and total heart weight” value in assay [2] is on record as “prevented the increased size”. For the same compound, the “Ang II induced left ventricular hypertrophy (LVW/BW)” value in assay [2] (wildtype but not ERβKO mice) was “largely prevented; also recorded: prevented Ang II induced cardiac hypertrophy and increased heart size”. In addition, the “Ang II induced elevations in phospho-ERK (p-ERK)” value in assay [3] (wildtype animals) was “partially prevented”. The MCIP-1 levels result in assay [3] (wildtype mice, irrespective of Ang II treatment) was “robustly elevated MCIP-1 levels”.
As a reminder, the Ki is a dissociation constant, usually derived from enzyme kinetics or from competition with a known ligand. As for `N#Cc1cn(-c2ccc(O)cc2)c(=O)c2c(O)cc(O)cc12` [14m, 6,8-dihydroxy-2-(4-hydroxyphenyl)-1-oxo-1,2-dihydroisoquinoline-4-carbonitrile], the “WY14643 induced PPAR-α transactivation” value with PPAR-α is “did not affect”. The compound also gave an inhibition constant Ki in assay [4] of 5.35 nM.

For the origin of these results see patent US9604931B2, “Nuclear receptor binding agents” (GTx, Inc., priority 2007, dated 2017).
